Numbered stars: 1 amine (or outer) side, 2 acyl side, 3 side chain; on linkers, the order of the positions; unused ones are H or OH. Square brackets hold non-standard residues; d marks the D form. Side chains are listed from the residue outwards. Peptide text beside a SMILES is read from it. NMeF = CN[C@@H](Cc1ccccc1)C(=O)O; CO = O=C([*:1])[*:2]
Experiments:
Chitotriosidase-1 = Chitotriosidase-1 (Homo sapiens, UniProt Q13231); assay: Inhibition Assay; settings: pH 5.5
Endochitinase B1 = Endochitinase B1 (Aspergillus fumigatus, UniProt Q873X9); assay: Inhibition Assay; settings: pH 5.5

Sequence of Chitotriosidase-1 (Q13231 whole entry): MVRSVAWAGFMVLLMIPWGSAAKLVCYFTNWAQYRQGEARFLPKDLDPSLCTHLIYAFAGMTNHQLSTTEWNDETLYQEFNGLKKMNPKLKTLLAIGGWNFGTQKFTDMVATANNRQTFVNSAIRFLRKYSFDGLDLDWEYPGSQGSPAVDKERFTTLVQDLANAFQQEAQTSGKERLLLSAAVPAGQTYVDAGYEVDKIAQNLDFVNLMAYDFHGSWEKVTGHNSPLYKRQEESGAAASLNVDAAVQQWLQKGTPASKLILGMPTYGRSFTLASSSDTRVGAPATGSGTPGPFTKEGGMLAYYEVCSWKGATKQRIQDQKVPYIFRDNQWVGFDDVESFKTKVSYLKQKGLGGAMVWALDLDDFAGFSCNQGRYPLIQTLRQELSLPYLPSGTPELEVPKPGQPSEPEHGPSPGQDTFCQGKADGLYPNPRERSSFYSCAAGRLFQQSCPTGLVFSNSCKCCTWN

IC50 (Chitotriosidase-1)	SMILES	IC50 (Endochitinase B1)
190 µM	CNC(=O)NC(=N)NCCC[C@H](NC(C)=O)C(=O)N(C)[C@@H](Cc1ccccc1)C(=O)O	–
1000 µM	CNC(=O)NC(N)=NCCC[C@H](NC(C)=O)C(=O)NC [Monopeptide]	–
28 µM	CNC(=O)NC(N)=NCCC[C@H](NC(=O)[C@@H](C)NC(C)=O)C(=O)N(C)[C@@H](Cc1ccccc1)C(=O)N[C@@H](CC(=O)O)C(=O)O [Tetrapeptide]	–
–	CNC(=O)NC(=N)NCCC[C@@H]1NC(=O)[C@@H](C)NC(=O)C[C@@H](C(=O)O)NC(=O)C[C@@H](C(=O)O)NC(=O)[C@H](Cc2ccccc2)N(C)C1=O [(2R,5S,8S,11S,15S)-8-benzyl-2,7-dimethyl-5-[3-({[(methylcarbamoyl)amino]methanimidoyl}amino)propyl]-3,6,9,13,17-pentaoxo-1,4,7,10,14-pentaazacycloheptadecane-11,15-dicarboxylic acid]	0.027 µM

SMILES	IC50 (Chitotriosidase-1)	IC50 (Endochitinase B1)
CNC(=O)NC(N)=NCCC[C@H](NC(C)=O)C(=O)N(C)[C@@H](Cc1ccccc1)C(=O)N[C@@H](CC(=O)O)C(=O)O [Tripeptide] (Ac-Arg([CO-NHMe])-[NMeF]-Asp-OH)	68 µM	5.1 µM
[H]/N=C(\NC)NC(=O)NC [Argifin-Derived Fragments, 1]	5800 µM	500 µM
